Measurements taken from patent US10363239B2, “Method for inhibiting growth of cancer cells” (Pain Therapeutics, Inc., priority 2013, dated 2019).

System: pS2152FLNA, FLNA-associated PTEN and PP2A in melanoma cells
Assay: pS2152FLNA and FLNA-associated PTEN and PP2A in anti-FLNA immunoprecipitate (Western blotting)
Format: cell-based, human
Conditions: 0.1-5 nM; 4 days
Description: The effect of Compound C0105 on the levels of pS^2152FLNA and FLNA-associated phosphatases, PTEN and PP2A subclasses was determined in melanoma cells. Cells were treated with vehicle and 0.1-5 nM Compound C0105 for 4 days. Cells were washed, solubilized and the resultant cell lysate was immunoprecipitated with anti-FLNA. The levels of pS^2152FLNA and FLNA-associated phosphatases, PTEN and PP2A subclasses in the anti-FLNA immunoprecipitate were determined by Western blotting. The density of protein bands was quantified by densitometric scanning. […] N=4. **p<0.05, *p<0.01 compared to vehicle (open bars). […]
The cell lysates were diluted 5-fold with immunoprecipitation buffer and immunoprecipitated with anti-FLNA, -Akt, -mTOR and -ERK2 as described previously [Talbot et al., J Clin Inv 122(4):1-23 (2012); Wang et al., J Neurosci 32(29):9773-9784 (2012)]. The levels of FLNA linkages, activated phosphorylated Akt (pS^473 and pT^308), phosphorylated mTOR (pS^2448) and phosphorylated ERK2 (pY/pT) were determined in anti-FLNA, -Akt, -mTOR and -ERK2 immunoprecipitates by Western blotting with appropriate antibodies directed against PTEN, PP2A, K-RAS, ras-GAP (FLNA linkages), pS^473Akt, pT^308Akt, pS^2448mTOR and pY/pT ERK2 (activation of Akt, mTOR and ERK2).

For `CN1CCC2(CC1)NCC(=O)N2Cc1ccccc1` [Compound C0105], the “FLNA-associated PTEN and PP2A levels” value was “increases FLNA-associated PTEN and PP2A levels” and the pS2152FLNA level was “reduces pS^2152FLNA”.
